Reference: PMC3914206

Legend:
Type in all cases: binding
Parameters in all cases: KINOMEscan: ABL1(F317L)-phosphorylated / KINOMEscan: ABL1(H396P)-nonphosphorylated / KINOMEscan: ABL1(H396P)-phosphorylated / KINOMEscan: ABL1(M351T)-phosphorylated / KINOMEscan: ABL1(T315I)-phosphorylated / KINOMEscan: ABL1-nonphosphorylated / KINOMEscan: ABL1-phosphorylated / KINOMEscan: ACVR2A / KINOMEscan: ACVR2B / KINOMEscan: ADCK3 / KINOMEscan: ADCK4 / KINOMEscan: AKT1 / KINOMEscan: AKT3 / KINOMEscan: ALK / KINOMEscan: ARK5 / KINOMEscan: AURKA / KINOMEscan: AURKC / KINOMEscan: BIKE / KINOMEscan: BMPR1A / KINOMEscan: BMPR1B / KINOMEscan: BMX / KINOMEscan: BRK / KINOMEscan: BRSK1 / KINOMEscan: BRSK2 / KINOMEscan: CAMK1 / KINOMEscan: CAMK1D / KINOMEscan: CAMK1G / KINOMEscan: CAMK2A / KINOMEscan: CAMK2B / KINOMEscan: AAK1 / KINOMEscan: CAMK2D / KINOMEscan: CAMK2G / KINOMEscan: ABL1(F317I)-nonphosphorylated / KINOMEscan: ABL1(F317I)-phosphorylated / KINOMEscan: ABL1(F317L)-nonphosphorylated: unit: % Ctrl
[1] = target: T1, panel of 442 kinases (Homo sapiens, UniProt O00238); settings: Compound Concentration 10 µM
T1 construct: purchased KINOMEscan
From the text: (§1) We assessed the selectivity of members of this scaffold using the KINOMEscan methodology across a near comprehensive panel of 442 kinases [[18,27]].

[2] = target: T2, panel of 442 kinases (Homo sapiens, UniProt P12931); settings: kinase SRC; compound concentration 10 µM
T2 construct: purchased KINOMEscan
From the text: as §1

[3] = target: T3, panel of 442 kinases (Homo sapiens, UniProt Q7KZI7); settings: Compound Concentration 10 µM
T3 construct: purchased KINOMEscan
From the text: as §1

[4] = target: T4, panel of 442 kinases (Homo sapiens, UniProt Q9HCP0); settings: Compound Concentration 10 µM
T4 construct: purchased KINOMEscan
From the text: as §1

T4 sequence (Q9HCP0 whole entry): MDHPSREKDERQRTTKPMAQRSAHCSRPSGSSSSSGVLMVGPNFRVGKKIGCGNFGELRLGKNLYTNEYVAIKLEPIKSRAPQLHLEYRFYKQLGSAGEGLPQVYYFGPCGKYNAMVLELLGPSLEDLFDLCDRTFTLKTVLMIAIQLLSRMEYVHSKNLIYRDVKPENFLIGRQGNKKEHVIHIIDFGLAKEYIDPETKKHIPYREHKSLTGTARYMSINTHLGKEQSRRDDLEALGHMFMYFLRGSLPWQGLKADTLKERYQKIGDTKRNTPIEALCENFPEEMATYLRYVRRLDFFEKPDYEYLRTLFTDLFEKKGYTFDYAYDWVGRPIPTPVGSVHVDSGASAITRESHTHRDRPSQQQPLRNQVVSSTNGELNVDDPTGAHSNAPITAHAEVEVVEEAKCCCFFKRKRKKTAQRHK
T3 sequence (Q7KZI7 whole entry): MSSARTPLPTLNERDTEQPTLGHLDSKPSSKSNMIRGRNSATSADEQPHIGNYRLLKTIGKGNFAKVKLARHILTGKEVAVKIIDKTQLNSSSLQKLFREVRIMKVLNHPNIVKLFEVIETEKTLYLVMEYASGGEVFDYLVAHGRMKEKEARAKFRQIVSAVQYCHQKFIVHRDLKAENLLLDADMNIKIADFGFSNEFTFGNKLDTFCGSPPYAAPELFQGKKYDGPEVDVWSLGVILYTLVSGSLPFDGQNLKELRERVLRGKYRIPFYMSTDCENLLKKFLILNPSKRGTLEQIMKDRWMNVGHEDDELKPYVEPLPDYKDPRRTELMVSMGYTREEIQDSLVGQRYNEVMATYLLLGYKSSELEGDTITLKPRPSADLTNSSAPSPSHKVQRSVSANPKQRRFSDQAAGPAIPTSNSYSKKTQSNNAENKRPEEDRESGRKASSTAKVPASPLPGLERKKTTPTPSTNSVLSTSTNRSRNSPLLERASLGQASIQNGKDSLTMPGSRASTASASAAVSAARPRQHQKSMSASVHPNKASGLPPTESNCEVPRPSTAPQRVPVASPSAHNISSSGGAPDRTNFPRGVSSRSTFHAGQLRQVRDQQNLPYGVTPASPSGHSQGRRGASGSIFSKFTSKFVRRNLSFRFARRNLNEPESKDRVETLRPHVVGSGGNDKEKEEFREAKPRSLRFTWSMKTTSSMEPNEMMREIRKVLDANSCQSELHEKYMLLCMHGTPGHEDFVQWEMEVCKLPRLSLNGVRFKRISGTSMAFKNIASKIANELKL
T2 sequence (P12931 whole entry): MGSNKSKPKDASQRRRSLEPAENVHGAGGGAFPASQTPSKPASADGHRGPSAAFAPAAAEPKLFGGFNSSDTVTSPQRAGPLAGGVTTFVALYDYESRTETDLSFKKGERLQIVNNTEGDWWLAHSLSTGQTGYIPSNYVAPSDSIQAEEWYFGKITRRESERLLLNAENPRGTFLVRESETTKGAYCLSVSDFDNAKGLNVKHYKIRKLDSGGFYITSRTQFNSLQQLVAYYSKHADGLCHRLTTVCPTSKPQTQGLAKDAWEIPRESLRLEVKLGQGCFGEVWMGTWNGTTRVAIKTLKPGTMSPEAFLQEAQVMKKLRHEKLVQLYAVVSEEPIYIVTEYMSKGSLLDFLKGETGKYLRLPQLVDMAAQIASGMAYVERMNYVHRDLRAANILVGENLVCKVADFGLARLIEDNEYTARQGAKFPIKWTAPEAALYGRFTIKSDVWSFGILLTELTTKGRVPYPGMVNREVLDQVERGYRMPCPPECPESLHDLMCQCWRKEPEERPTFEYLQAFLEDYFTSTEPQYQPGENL
T1 sequence (O00238 14-502): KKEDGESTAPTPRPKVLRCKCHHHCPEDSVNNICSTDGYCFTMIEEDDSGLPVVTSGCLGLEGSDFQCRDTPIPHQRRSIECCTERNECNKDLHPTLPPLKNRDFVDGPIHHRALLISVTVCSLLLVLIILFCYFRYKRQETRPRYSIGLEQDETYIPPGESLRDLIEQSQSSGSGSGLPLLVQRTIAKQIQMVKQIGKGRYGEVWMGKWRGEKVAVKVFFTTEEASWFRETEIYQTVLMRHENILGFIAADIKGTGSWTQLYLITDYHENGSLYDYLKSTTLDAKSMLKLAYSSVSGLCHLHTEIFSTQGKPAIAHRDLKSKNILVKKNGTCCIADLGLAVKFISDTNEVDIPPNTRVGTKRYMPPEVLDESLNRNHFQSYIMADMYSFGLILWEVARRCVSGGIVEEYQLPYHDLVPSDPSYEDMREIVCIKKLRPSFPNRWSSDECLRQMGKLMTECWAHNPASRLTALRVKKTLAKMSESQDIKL

## COc1cc(C(=O)N2CCC(N3CCN(C)CC3)CC2)ccc1Nc1ncc2c(n1)N(C)c1ccccc1C(=O)N2C [15 (LRRK2-IN-1)]
[1]
  KINOMEscan: BMPR1B: 76
[2]
  % Ctrl, SRC: 100 % Ctrl
[3]
  KINOMEscan: MARK2: 100
[4]
  KINOMEscan: CSNK1G1: 100

## COc1cc(C(=O)N2CCC(N3CCN(C)CC3)CC2)ccc1Nc1ncc2c(n1)N1CCc3cccc(c31)C(=O)N2C [Compound 24]
[1]
  KINOMEscan: BMPR1B: 97
[2]
  % Ctrl, SRC: 95 % Ctrl

## COc1cc(C(=O)N2CCC(N3CCN(C)CC3)CC2)ccc1Nc1ncc2c(n1)N(C1CCCC1)c1ccccc1C(=O)N2C [Compound 25, 11-cyclopentyl-2-((2-methoxy-4-(4-(4-methylpiperazin-1-yl)piperidine-1-carbonyl)phenyl)amino)-5-methyl-5H-benzo[e]pyrimido[5,4-b][1,4]diazepin-6(11H)-one]
[1]
  KINOMEscan: BMPR1B: 98
[2]
  % Ctrl, SRC: 90 % Ctrl
[3]
  KINOMEscan: MARK2: 98
[4]
  KINOMEscan: CSNK1G1: 73

## CCOc1cc(C(=O)N2CCC(N3CCN(C)CC3)CC2)ccc1Nc1ncc2c(n1)N(C1CCCC1)c1ccccc1C(=O)N2C [Compound 26]
[1]
  KINOMEscan: BMPR1B: 100
[2]
  % Ctrl, SRC: 100 % Ctrl
[3]
  KINOMEscan: MARK2: 96
[4]
  KINOMEscan: CSNK1G1: 98
